Where no end group is shown, it is not given here.

Experimental findings from patent US8815812B2, “Synthetic arginine substituted peptides and their use” (Inger Mattsby-Baltzer, priority 2007, dated 2014) are described below.

Holding throughout (assay): Antimicrobial assay (MMC99) in 1% Bactopeptone
Common to all, as to format: cell-based
Holding throughout (details): 99% reduction of the inoculum

For one assay, the system named is C. albicans. The method, then:
(§1) [NT] […] Washed cells were suspended in 1% Bactopeptone (BP) (Difco, USA). The concentration of bacterial or fungal cells was spectrophotometrically adjusted. Peptides serially diluted in BP by twofold steps were added in duplicate or triplicate to the wells of a microtiterplate (200 μl per well). The bacterial or yeast cell solutions were added in 10 μl volumes to give a final concentration of approximately 2×10^5 cells per ml. The concentration of the stock solution was always checked by viable counts. The microplate was incubated at 37° C. in a humid chamber for 2 h unless otherwise stated. Five μl were taken from each well and added as a drop onto a blood agar plate and incubated over night at 37° C. The concentration of lactoferrin or peptide causing a 99% reduction of the inoculum was defined as the MMC99.

Another assay has as its system E. coli. How it is done:
as §1

The subject of another assay is S. aureus. How it is done: as §1

Consider “GRRRRSVQWCAVSQPEATKCFQWQRNMRKVR (cysteine pairing not given here) [HLBD31]”, for which the MMC99 with C. albicans (2 h) was 25 µg/mL; in the assay on C. albicans (24 h) it was 38 µg/mL; in the assay on E. coli (2 h), more than 100 µg/mL; in the assay on E. coli (24 h), 50 µg/mL; in the assay on S. aureus (2 h), 100 µg/mL; with S. aureus (24 h), 100 µg/mL.
